From PubChem BioAssay AID256 (DTP/NCI, 2004)
Inconclusive results and toxic doses are left out. How the source made its calls: active means survival T/C of 150% or more; inactive means T/C below 125% in these data.

Tested on: CD2F1 mice, L1210 leukemia ip, survival T/C
Experiment: NCI In Vivo Anticancer Drug Screen. Data for tumor model L1210 Leukemia (intraperitoneal) in CD2F1 (CDF1) mice
Settings: higher = longer survival
Method in brief: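 Vehicle-treated tumor-bearing mice served as controls (C) for compound-treated mice (T). Reported figure is T divided by C.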

Measured: T/C

O=c1[nH]c(=O)n(C2CC(O)C(CO)O2)cc1F (configuration not stated)
inactive: endpoint: mean survival time, dose: 5.0 mg/kg/injection, schedule: Q#A X018 (ip), vehicle: saline 115 % of control | endpoint: mean survival time, dose: 9.0 mg/kg/injection, schedule: Q#A X018 (ip), vehicle: saline 121 % of control | endpoint: mean survival time, dose: 12.5 mg/kg/injection, schedule: Q03HX024 (oral), vehicle: saline 101 % of control | endpoint: mean survival time, dose: 16.0 mg/kg/injection, schedule: Q#A X018 (ip), vehicle: saline 121 % of control | endpoint: mean survival time, dose: 25.0 mg/kg/injection, schedule: Q01DX005 (ip), vehicle: water 108 % of control | endpoint: mean survival time, dose: 25.0 mg/kg/injection, schedule: Q03HX008 (oral), vehicle: saline 107 % of control | endpoint: mean survival time, dose: 25.0 mg/kg/injection, schedule: Q03HX016 (ip), vehicle: saline 96 % of control | endpoint: mean survival time, dose: 26.0 mg/kg/injection, schedule: Q#A X018 (ip), vehicle: saline 123 % of control | endpoint: mean survival time, dose: 31.3 mg/kg/injection, schedule: Q01DX005 (ip), vehicle: saline 121 % of control | endpoint: mean survival time, dose: 37.5 mg/kg/injection, schedule: Q03DX003 (ip), vehicle: water 121 % of control | endpoint: mean survival time, dose: 37.5 mg/kg/injection, schedule: Q04DX003 (ip), vehicle: water 100 % of control | endpoint: mean survival time, dose: 43.0 mg/kg/injection, schedule: Q#A X018 (ip), vehicle: saline 108 % of control | endpoint: mean survival time, dose: 50.0 mg/kg/injection, schedule: Q01DX005 (ip), vehicle: water 110 % of control | endpoint: mean survival time, dose: 50.0 mg/kg/injection, schedule: Q01DX009 (oral), vehicle: saline 119 % of control | endpoint: mean survival time, dose: 50.0 mg/kg/injection, schedule: Q03HX008 (oral), vehicle: saline 111 % of control | endpoint: mean survival time, dose: 50.0 mg/kg/injection, schedule: Q03HX016 (ip), vehicle: saline 111 % of control | endpoint: mean survival time, dose: 50.0 mg/kg/injection, schedule: Q03HX024 (oral), vehicle: saline 107 % of control | endpoint: mean survival time, dose: 72.0 mg/kg/injection, schedule: Q#A X018 (ip), vehicle: saline 106 % of control | endpoint: mean survival time, dose: 75.0 mg/kg/injection, schedule: Q01DX007 (ip), vehicle: water 100 % of control | endpoint: mean survival time, dose: 75.0 mg/kg/injection, schedule: Q01DX009 (ip), vehicle: water 110 % of control | endpoint: mean survival time, dose: 75.0 mg/kg/injection, schedule: Q03DX003 (ip), vehicle: water 122 % of control | endpoint: mean survival time, dose: 75.0 mg/kg/injection, schedule: Q04DX003 (ip), vehicle: water 111 % of control | endpoint: mean survival time, dose: 100.0 mg/kg/injection, schedule: Q01DX005 (ip), vehicle: water 110 % of control | endpoint: mean survival time, dose: 100.0 mg/kg/injection, schedule: Q03HX024 (oral), vehicle: saline 92 % of control | endpoint: mean survival time, dose: 100.0 mg/kg/injection, schedule: Q04DX003 (oral), vehicle: saline 114 % of control | endpoint: mean survival time, dose: 120.0 mg/kg/injection, schedule: Q#A X018 (ip), vehicle: saline 94 % of control | endpoint: mean survival time, dose: 125.0 mg/kg/injection, schedule: Q01DX001 (ip), vehicle: saline 101 % of control | endpoint: mean survival time, dose: 125.0 mg/kg/injection, schedule: Q01DX001 (oral), vehicle: saline 101 % of control | endpoint: mean survival time, dose: 125.0 mg/kg/injection, schedule: Q01DX001 (sc), vehicle: saline 109 % of control | endpoint: mean survival time, dose: 125.0 mg/kg/injection, schedule: Q01DX009 (oral), vehicle: saline 121 % of control | endpoint: mean survival time, dose: 125.0 mg/kg/injection, schedule: Q03HX008 (ip), vehicle: saline 120 % of control | endpoint: mean survival time, dose: 125.0 mg/kg/injection, schedule: Q03HX016 (ip), vehicle: saline 110 % of control | endpoint: mean survival time, dose: 125.0 mg/kg/injection, schedule: Q04DX003 (ip), vehicle: saline 119 % of control | endpoint: mean survival time, dose: 125.0 mg/kg/injection, schedule: Q08DX002 (ip), vehicle: saline 100 % of control | endpoint: mean survival time, dose: 150.0 mg/kg/injection, schedule: Q01DX007 (ip), vehicle: water 100 % of control | endpoint: mean survival time, dose: 150.0 mg/kg/injection, schedule: Q01DX009 (ip), vehicle: water 100 % of control | endpoint: mean survival time, dose: 200.0 mg/kg/injection, schedule: Q01DX001 (oral), vehicle: saline 113 % of control | endpoint: mean survival time, dose: 200.0 mg/kg/injection, schedule: Q01DX005 (ip), vehicle: water 87 % of control | endpoint: mean survival time, dose: 200.0 mg/kg/injection, schedule: Q01DX009 (oral), vehicle: saline 114 % of control | endpoint: mean survival time, dose: 200.0 mg/kg/injection, schedule: Q03HX008 (oral), vehicle: saline 94 % of control | endpoint: mean survival time, dose: 200.0 mg/kg/injection, schedule: Q03HX016 (ip), vehicle: saline 118 % of control | endpoint: mean survival time, dose: 200.0 mg/kg/injection, schedule: Q08DX002 (oral), vehicle: saline 103 % of control | endpoint: mean survival time, dose: 200.0 mg/kg/injection, schedule: Q#A X018 (ip), vehicle: saline 88 % of control | endpoint: mean survival time, dose: 250.0 mg/kg/injection, schedule: Q01DX001 (ip), vehicle: saline 111 % of control | endpoint: mean survival time, dose: 250.0 mg/kg/injection, schedule: Q01DX001 (oral), vehicle: saline 108 % of control | endpoint: mean survival time, dose: 250.0 mg/kg/injection, schedule: Q01DX001 (sc), vehicle: saline 123 % of control | endpoint: mean survival time, dose: 250.0 mg/kg/injection, schedule: Q01DX009 (ip), vehicle: saline 108 % of control | endpoint: mean survival time, dose: 250.0 mg/kg/injection, schedule: Q01DX009 (oral), vehicle: saline 121 % of control | endpoint: mean survival time, dose: 250.0 mg/kg/injection, schedule: Q01DX009 (sc), vehicle: saline 122 % of control | endpoint: mean survival time, dose: 250.0 mg/kg/injection, schedule: Q08DX002 (ip), vehicle: saline 115 % of control | endpoint: mean survival time, dose: 320.0 mg/kg/injection, schedule: Q01DX009 (ip), vehicle: saline 102 % of control | endpoint: mean survival time, dose: 400.0 mg/kg/injection, schedule: Q01DX001 (oral), vehicle: saline 117 % of control | endpoint: mean survival time, dose: 400.0 mg/kg/injection, schedule: Q01DX009 (oral), vehicle: saline 109 % of control | endpoint: mean survival time, dose: 400.0 mg/kg/injection, schedule: Q04DX003 (oral), vehicle: saline 119 % of control | endpoint: mean survival time, dose: 400.0 mg/kg/injection, schedule: Q08DX002 (oral), vehicle: saline 107 % of control | endpoint: mean survival time, dose: 500.0 mg/kg/injection, schedule: Q01DX001 (oral), vehicle: saline 121 % of control | endpoint: mean survival time, dose: 500.0 mg/kg/injection, schedule: Q03HX024 (ip), vehicle: saline 121 % of control | endpoint: mean survival time, dose: 800.0 mg/kg/injection, schedule: Q04DX003 (oral), vehicle: saline 110 % of control | endpoint: mean survival time, dose: 1000.0 mg/kg/injection, schedule: Q03HX024 (ip), vehicle: saline 92 % of control | endpoint: mean survival time, dose: 1000.0 mg/kg/injection, schedule: Q04DX003 (ip), vehicle: saline 98 % of control | endpoint: mean survival time, dose: 1600.0 mg/kg/injection, schedule: Q01DX001 (oral), vehicle: saline 103 % of control | endpoint: mean survival time, dose: 1600.0 mg/kg/injection, schedule: Q08DX002 (oral), vehicle: saline 97 % of control | endpoint: median survival time, dose: 51.8 mg/kg/injection, schedule: Q04DX002 (ip), vehicle: saline 107 % of control | endpoint: median survival time, dose: 86.4 mg/kg/injection, schedule: Q04DX002 (ip), vehicle: saline 114 % of control | endpoint: median survival time, dose: 144.0 mg/kg/injection, schedule: Q04DX002 (ip), vehicle: saline 121 % of control | endpoint: median survival time, dose: 400.0 mg/kg/injection, schedule: Q04DX002 (ip), vehicle: saline 105 % of control
active: endpoint: mean survival time, dose: 80.0 mg/kg/injection, schedule: Q01DX009 (ip), vehicle: saline 167 % of control | endpoint: mean survival time, dose: 125.0 mg/kg/injection, schedule: Q03HX024 (ip), vehicle: saline 163 % of control | endpoint: mean survival time, dose: 160.0 mg/kg/injection, schedule: Q01DX009 (ip), vehicle: saline 151 % of control | endpoint: mean survival time, dose: 250.0 mg/kg/injection, schedule: Q03HX024 (ip), vehicle: saline 155 % of control | endpoint: mean survival time, dose: 250.0 mg/kg/injection, schedule: Q04DX003 (ip), vehicle: saline 162 % of control | endpoint: mean survival time, dose: 500.0 mg/kg/injection, schedule: Q03HX016 (ip), vehicle: saline 154 % of control | endpoint: mean survival time, dose: 500.0 mg/kg/injection, schedule: Q08DX002 (ip), vehicle: saline 164 % of control | endpoint: mean survival time, dose: 800.0 mg/kg/injection, schedule: Q08DX002 (oral), vehicle: saline 156 % of control | endpoint: mean survival time, dose: 1000.0 mg/kg/injection, schedule: Q01DX001 (oral), vehicle: saline 151 % of control | endpoint: mean survival time, dose: 1000.0 mg/kg/injection, schedule: Q01DX001 (sc), vehicle: saline 159 % of control | endpoint: mean survival time, dose: 1000.0 mg/kg/injection, schedule: Q03HX008 (ip), vehicle: saline 157 % of control
